In US20100137397A1, “Chemical Compounds” (ASTRAZENECA AB, priority 2005, published 2010):

Assays:
[1] = conscious dogs; cited from earlier work
[2] = db/db and ob/ob mice; cited from earlier work
hepatocytes = conditions: cited from earlier work
[3] = target: T1, Human recombinant liver glycogen phosphorylase a (hrl GPa) (Homo sapiens, UniProt P06737); experiment: glycogen phosphorylase a multienzyme coupled assay; format: biochemical; conditions: hrl GPa 20 nM, 8 mM glucose, pH7.2, 6 hours at 30° C.
T1 sequence (P06737 1-847): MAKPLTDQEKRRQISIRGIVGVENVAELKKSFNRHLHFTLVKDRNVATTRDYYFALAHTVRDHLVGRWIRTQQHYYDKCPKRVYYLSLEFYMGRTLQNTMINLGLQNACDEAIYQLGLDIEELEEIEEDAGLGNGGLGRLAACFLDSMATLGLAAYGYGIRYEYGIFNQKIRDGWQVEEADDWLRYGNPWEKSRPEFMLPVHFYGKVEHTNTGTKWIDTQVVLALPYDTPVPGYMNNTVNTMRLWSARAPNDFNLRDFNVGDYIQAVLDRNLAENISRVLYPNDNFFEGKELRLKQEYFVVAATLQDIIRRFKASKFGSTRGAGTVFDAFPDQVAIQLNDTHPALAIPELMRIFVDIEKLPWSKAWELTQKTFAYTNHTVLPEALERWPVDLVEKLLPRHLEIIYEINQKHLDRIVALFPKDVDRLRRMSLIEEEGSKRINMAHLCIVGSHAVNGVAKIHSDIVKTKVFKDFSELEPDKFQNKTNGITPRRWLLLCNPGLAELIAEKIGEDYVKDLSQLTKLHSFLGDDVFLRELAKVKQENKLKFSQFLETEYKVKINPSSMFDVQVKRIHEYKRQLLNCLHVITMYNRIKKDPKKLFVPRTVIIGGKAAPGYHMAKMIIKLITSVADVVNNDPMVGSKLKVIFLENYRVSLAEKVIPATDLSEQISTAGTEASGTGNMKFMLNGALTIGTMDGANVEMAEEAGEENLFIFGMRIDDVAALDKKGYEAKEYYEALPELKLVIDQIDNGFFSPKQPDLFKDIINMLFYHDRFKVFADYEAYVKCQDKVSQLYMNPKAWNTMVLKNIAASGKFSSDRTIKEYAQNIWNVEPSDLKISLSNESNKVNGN
Method: The activity of the compounds is determined by measuring the inhibitory effect of the compounds on glycogen degradation, the production of glucose-1-phosphate from glycogen is monitored by the multienzyme coupled assay, as described in EP 0 846 464 A2, general method of Pesce et al (Pesce, M A, Bodourian, S H, Harris, R C, and Nicholson, J F (1977) Clinical Chemistry 23, […]). The reactions were in 384well microplate format in a volume of 50 μl. The change in fluorescence due to the conversion of the co-factor NAD to NADH is measured at 340 nm excitation, 465 nm emission in a Tecan Ultra Multifunctional Microplate Reader. The reaction is in 50 mM HEPES, 3.5 mM KH2PO4, 2.5 mM MgCl2, 2.5 mM ethylene glycol-bis(b-aminoethyl ether) N,N,N′,N′-tetraacetic acid, 100 mM KCl, 8 mM D-(+)-glucose pH7.2, containing 0.5 mM dithiothreitol, the assay buffer solution. Human recombinant liver glycogen phosphorylase a (hrl GPa) 20 nM is pre-incubated in assay buffer solution with 6.25 mM NAD, 1.25 mg type III glycogen at 1.25 mg m^−1 the reagent buffer, for 30 minutes. […] The non-inhibited activity of GPa is measured in the presence of 10 μl 5% DMSO in assay buffer solution and maximum inhibition measured in the presence of 5 mgs ml^−1 N-ethylmaleimide. […] Relative Fluoresence Units (RFUs) are measured at 340 nm excitation, 465 nm emission. […]
Activity is calculated as follows:—

Compound	hepatic glucose output and arterial plasma glucose following a glucagon challenge [1]	plasma glucose concentration [2]	glucagon stimulated glycogenolysis and glucose output in hepatocytes (hepatocytes)	IC50 [3] [µM]
CCN1C(C)=C(C(=O)OC(C)C)C(c2ccccc2Cl)C2=C1COC2=O (stereo not shown) [Bay R 3401]	reduced significantly			
CN(C)C(=O)[C@H](O)[C@H](Cc1ccccc1)NC(=O)c1cc2cc(Cl)ccc2[nH]1 [CP91149]		reduced, in a dose related manner	reduce	
O=C(N[C@@H](Cc1ccc(F)cc1)C(=O)N1CCC(O)CC1)c1cc2cc(Cl)ccc2[nH]1 [CP320626]		reduced, in a dose related manner	reduce	
O=C(O)COC[C@@H]1c2ccccc2C[C@H]1NC(=O)c1cc2cc(Cl)sc2[nH]1 [Example 1, [((1R,2R)-2-{[(2-Chloro-6H-thieno[2,3-b]pyrrol-5-yl)carbonyl}amino]-2,3-dihydro-1H-inden-1-yl)methoxy]acetic acid]				0.191
O=C(O)C[C@@H]1c2ccccc2C[C@H]1NC(=O)c1cc2sc(Cl)c(Cl)c2[nH]1 [Example 8, ((1R,2R)-2-{[(2,3-Dichloro-4H-thieno[3,2-b]pyrrol-5-yl)carbonyl]amino}-2,3-dihydro-1H-inden-1-yl)acetic acid]				0.014
